In patent US20110060053A1, “Crystalline Modifications of 6-Dimethylaminomethyl-1-(3-methoxyphenyl)-cyclohexane-1,3-diol” (Gruenenthal GmbH, priority 2002, published 2011):

Test: thermodynamic stability of the crystalline modifications
Assay type: physicochemical
Conditions: in particular in the temperature range of −20° C. to 120° C.

With `COc1cccc([C@@]2(O)C[C@H](O)CC[C@@H]2CN(C)C)c1` (racemic) [Crystalline modification A, (1RS,3RS,6RS)-6-dimethylaminomethyl-1-(3-methoxyphenyl)-cyclohexan-1,3-diol] the thermodynamic stability was “most thermodynamically stable form”.
